Experimental data as given in US11583516B2, “Dash inhibitors, and uses related thereto” (Trustees of Tufts College, priority 2016, dated 2023).
Where two headings read alike, the source gives them in different places.

What was measured:
G-CSF = assay: Serum cytokine induction in mice (G-CSF screen); type: in vivo, BALB/c mice
Text: No. MKC00B) • IL-18 (R&D Systems, Cat. […] Systems, Cat. No. […])

CT26 cells = assay: CT26 cell viability; type: cell-based
PGE2 = assay: Peritoneal PGE2 levels after dosing; type: in vivo; details: even at substantially higher doses than Val-boroPro
[1] = MTD (survival) of ARI-4268; type: in vivo; details: without PGE2 inhibitor, compared with Val-boroPro
[2] = in comparison to Val-boroPro
MB49 tumor = assay: MB49 efficacy studies; type: in vivo, C57BL/6 mice
RS4;11 cells = assay: Cell line drug sensitivity (CellTiter-Glo); type: cell-based
HEL cells = assay: Cell line drug sensitivity (CellTiter-Glo); type: cell-based
Method: (§1) SET-2, RS4;11, and SKM-1 cells were purchased from DSMZ. HL-60, MV4;11, OCI-AML2, NB4, MOLM-13, NOMO-1, DAOY, HEL, IMR-5, K562, Kasumi-1, ONS-76, RDES-1, and TC-71 cells were a gift from Alex Kentsis and verified using STR genotyping (Genetica). […] MCF-7, Jurkat, THP-1, U937, HL-60, MV4;11, OCI-AML2, NB4, MOLM-13, NOMO-1, HEL, K562, SET-2, RS4;11, SKM-1 and Kasumi-1 were grown in RPMI-1640 medium with 10% FBS. All cells were grown at 37° C. in a 5% CO2 incubator. Cell lines were tested for mycoplasma using the MycoAlert Mycoplasma Detection Kit (Lonza).
(§2) Cells were plated (2000 cells/well) in white, 384-well clear bottom plates using an EL406 Microplate Washer/Dispenser (BioTek) in 25 μL final volume of media. Compounds were added using a pintool (CyBio) and cells were incubated for 48 h at 37° C. Assay plates were then removed from the incubator and allowed to equilibrate to room temperature on the bench top before addition of 10 μL of CellTiter-Glo reagent (Promega) according to the manufacturer's instructions. Assay plates were shaken on an orbital shaker for 2 minutes and incubated at room temperature on the bench top for 10 minutes. Luminescence was then read using a Cytation 5 Cell Imaging Multi-Mode Reader (BioTek). (FIG. 6)

SKM-1 cells = assay: Cell line drug sensitivity (CellTiter-Glo); type: cell-based
Method: as §1, §2

Jurkat cells = assay: Cell line drug sensitivity (CellTiter-Glo); type: cell-based; details: 48 h
Method: as §1, §2

MOLM-13 cells = assay: Cell line drug sensitivity (CellTiter-Glo); type: cell-based
Method: as §1, §2

OCI-AML3 cells = assay: Cell line drug sensitivity (CellTiter-Glo); type: cell-based
Method: as §1, §2

HT-1080 cells = assay: Cell line drug sensitivity (CellTiter-Glo); type: cell-based
Method: as §1, §2

THP-1 cells = assay: Cell line drug sensitivity (CellTiter-Glo); type: cell-based
Method: as §1, §2

MCF7 cells = assay: Cell line drug sensitivity (CellTiter-Glo); type: cell-based
Method: as §1, §2

HL-60 cells = assay: Cell line drug sensitivity (CellTiter-Glo); type: cell-based
Method: as §1, §2

IMR-5 cells = assay: Cell line drug sensitivity (CellTiter-Glo); type: cell-based
Method: as §1, §2

TC-71 cells = assay: Cell line drug sensitivity (CellTiter-Glo); type: cell-based
Method: as §1, §2

DAOY cells = assay: Cell line drug sensitivity (CellTiter-Glo); type: cell-based; details: 48 h
Method: as §1, §2

SET-2 cells = assay: Cell line drug sensitivity (CellTiter-Glo); type: cell-based
Method: as §1, §2

U937 cells = assay: Cell line drug sensitivity (CellTiter-Glo); type: cell-based
Method: as §1, §2

Kasumi-1 cells = assay: Cell line drug sensitivity (CellTiter-Glo); type: cell-based
Method: as §1, §2

NOMO-1 cells = assay: Cell line drug sensitivity (CellTiter-Glo); type: cell-based
Method: as §1, §2

ONS-76 cells = assay: Cell line drug sensitivity (CellTiter-Glo); type: cell-based
Method: as §1, §2

K562 cells = assay: Cell line drug sensitivity (CellTiter-Glo); type: cell-based
Method: as §1, §2

RDES-1 cells = assay: Cell line drug sensitivity (CellTiter-Glo); type: cell-based; details: 48 h
Method: as §1, §2

KG-1 cells = assay: Cell line drug sensitivity (CellTiter-Glo); type: cell-based
Method: as §1, §2

NB4 cells = assay: Cell line drug sensitivity (CellTiter-Glo); type: cell-based; details: Homo sapiens, NB-4, 48 h
MV4;11 cells = assay: Cell line drug sensitivity (CellTiter-Glo); type: cell-based; details: Homo sapiens, MV4-11, 48 h
AML cell lines = assay: AML cell line sensitivity, summary over the panel; type: cell-based; details: all of these lines
Method: as §1, §2

rhabdomyosarcoma = details: established rhabdomyosarcoma, preclinical; cited from earlier work

## N[C@@H](CC(=O)N1CCn2c(nnc2C(F)(F)F)C1)Cc1cc(F)c(F)cc1F [Sitagiptin, Sitagliptin]
G-CSF; 200 μg/animal SC
  Average [G-CSF] at 6 hrs: 100 pg/mL
G-CSF; 1000 μg/animal PO
  Average [G-CSF] at 6 hrs: 340 pg/mL
G-CSF; 2000 μg/animal SC
  Average [G-CSF] at 6 hrs: 950 pg/mL

## N[C@@H](CCC(=O)O)C(=O)N1CCC[C@H]1B(O)O [Glu-boroPro]
CT26 cells
  EC50: > 1000 µM
G-CSF; 20 μg/animal PO
  Average [G-CSF] at 6 hrs: 340 pg/mL
G-CSF; 200 μg/animal PO
  Average [G-CSF] at 6 hrs: 160 pg/mL
G-CSF; 200 μg/animal SC
  Average [G-CSF] at 6 hrs: 210 pg/mL
G-CSF; 2000 μg/animal PO
  Average [G-CSF] at 6 hrs: 2300 pg/mL
G-CSF; 2000 μg/animal SC
  Average [G-CSF] at 6 hrs: 16000 pg/mL

## C[C@H](N)C(=S)N1CCC[C@H]1B(O)O [ARI-2243]
CT26 cells
  EC50: > 1000 µM
G-CSF; 20 μg/animal PO
  Average [G-CSF] at 6 hrs: 330 pg/mL
G-CSF; 50 μg/animal IP
  Average [G-CSF] at 6 hrs: 2100 pg/mL
G-CSF; 100 μg/animal IP
  Average [G-CSF] at 6 hrs: 2400 pg/mL
G-CSF; 300 μg/animal IP
  Average [G-CSF] at 6 hrs: 4400 pg/mL

## CC(C)C[C@H](NC(=O)[C@H](Cc1ccccc1)NC(=O)c1cnccn1)B(O)O [Bortezomib]
CT26 cells; Mus musculus, CT26
  EC50: 0.036 µM

## CC(C)(F)[C@H](N)C(=O)N1CCC[C@H]1B(O)O (relative stereo) [ARI-4268]
PGE2
  Peritoneal PGE2 levels: does not induce peritoneal PGE2 levels to the same extent as Val-boroPro
[1]
  MTD (survival): dramatically increased MTD (survival) without the need for a PGE2 inhibitor
[2]
  Oral activity: good oral activity—on par with highly orally active Val-boroPro
MB49 tumor; MB49 model, truncated dosing schedules
  Antitumor activity: displays antitumor activity in the MB49 mouse tumor model at doses indicating improved therapeutic index

## NC(N)=NCCC[C@H](N)C(=O)N1CCC[C@H]1B(O)O [Arg-boroPro]
CT26 cells
  EC50: > 1000 µM

## CC1([C@H](N)C(=O)N2CCC[C@H]2B(O)O)CCCCC1 (relative stereo) [ARI-4175CH]
RS4;11 cells; Homo sapiens, RS4-11, 48 h
  IC50: 0.013 µM
HEL cells; Homo sapiens, 48 h
  IC50: > 60 µM
SKM-1 cells; Homo sapiens, SKM-1, 48 h
  IC50: 0.001 µM
Jurkat cells; Homo sapiens
  IC50: > 60 µM
MOLM-13 cells; Homo sapiens, MOLM-13, 48 h
  IC50: 0.006 µM
OCI-AML3 cells; Homo sapiens, OCI-AML-3, 48 h
  IC50: 0.003 µM
HT-1080 cells; Homo sapiens, HT-1080, 48 h
  IC50: > 60 µM
THP-1 cells; Homo sapiens, THP-1, 48 h
  IC50: 0.006 µM
MCF7 cells; Homo sapiens, MCF7, 48 h
  IC50: > 60 µM
HL-60 cells; Homo sapiens, HL-60, 48 h
  IC50: 0.003 µM
IMR-5 cells; Homo sapiens, IMR-5, 48 h
  IC50: > 60 µM
TC-71 cells; TC-71, 48 h
  IC50: > 60 µM
DAOY cells; Homo sapiens, Daoy
  IC50: > 60 µM
SET-2 cells; Homo sapiens, SET-2, 48 h
  IC50: 0.001 µM
U937 cells; Homo sapiens, U-937, 48 h
  IC50: > 60 µM
Kasumi-1 cells; Homo sapiens, Kasumi 1, 48 h
  IC50: > 60 µM
NOMO-1 cells; Homo sapiens, NOMO-1, 48 h
  IC50: 0.004 µM
ONS-76 cells; Homo sapiens, ONS-76, 48 h
  IC50: > 60 µM
K562 cells; Homo sapiens, K562, 48 h
  IC50: > 60 µM
RDES-1 cells
  IC50: > 60 µM
KG-1 cells; Homo sapiens, KG-1, 48 h
  IC50: 0.049 µM
NB4 cells
  IC50: 0.003 µM
MV4;11 cells
  IC50: 0.003 µM
CT26 cells; Mus musculus, CT26
  EC50: > 1000 µM
AML cell lines
  IC50 values over the sensitive AML cell lines: low (single digit) nanomolar

## Cc1ccc(-c2cc(C(F)(F)F)nn2-c2ccc(S(N)(=O)=O)cc2)cc1 [celecoxib]
MB49 tumor; celecoxib alone, various concentrations
  Tumor growth rate: no observed differences in tumor growth rates compared to control

## CC(C)(C)[C@H](N)C(=O)N1CCC[C@H]1B(O)O [ARI-4175, t-butylglycine-boroProline]
RS4;11 cells; RS4;11, AML/B-ALL, 48 h, read-out: IC50
  IC50: 0.096 µM
HEL cells; AML/Erythroleukemis M6, 48 h, read-out: IC50
  IC50: > 60 µM
SKM-1 cells; SKM-1, AML M5, 48 h, read-out: IC50
  IC50: 0.007 µM
Jurkat cells; T-ALL, read-out: IC50
  IC50: > 60 µM
MOLM-13 cells; MOLM-13, AML M5, 48 h, read-out: IC50
  IC50: 0.028 µM
OCI-AML3 cells; OCI-AML3, AML M4, 48 h, read-out: IC50
  IC50: 0.019 µM
HT-1080 cells; HT-1080, Fibrosarcoma, 48 h, read-out: IC50
  IC50: > 60 µM
THP-1 cells; THP-1, AML M5, 48 h, read-out: IC50
  IC50: 0.023 µM
MCF7 cells; MCF7, Breast, 48 h, read-out: IC50
  IC50: > 60 µM
HL-60 cells; HL-60, AML M2, 48 h, read-out: IC50
  IC50: 0.016 µM
IMR-5 cells; IMR-5, Neuroblastoma, 48 h, read-out: IC50
  IC50: > 60 µM
TC-71 cells; TC-71, Ewing's sarcoma, 48 h, read-out: IC50
  IC50: > 60 µM
DAOY cells; DAOY, Medulloblastoma, read-out: IC50
  IC50: > 60 µM
SET-2 cells; SET-2, AML/MPN, 48 h, read-out: IC50
  IC50: 0.002 µM
U937 cells; U937, AML/histiocytic lymphoma M5, 48 h, read-out: IC50
  IC50: > 60 µM
Kasumi-1 cells; Kasumi-1, AML M2, 48 h, read-out: IC50
  IC50: > 60 µM
NOMO-1 cells; NOMO-1, AML M5, 48 h, read-out: IC50
  IC50: 0.03 µM
ONS-76 cells; ONS-76, Medulloblastoma, 48 h, read-out: IC50
  IC50: > 60 µM
K562 cells; K562, CML/Erythroleukemia, 48 h, read-out: IC50
  IC50: > 60 µM
RDES-1 cells; RDES-1, Ewing's sarcoma, read-out: IC50
  IC50: > 60 µM
KG-1 cells; KG-1, AML M0, 48 h, read-out: IC50
  IC50: 0.035 µM
rhabdomyosarcoma
  Anti-tumor activity: significant immune-dependent anti-tumor activity
CT26 cells
  EC50: > 1000 µM
G-CSF; 20 μg/animal PO
  Average [G-CSF] at 6 hrs: 19000 pg/mL
G-CSF; 20 μg/animal SC
  Average [G-CSF] at 6 hrs: 65000 pg/mL

## N[C@H](C(=O)N1CCC[C@H]1B(O)O)C12CC3CC(CC(C3)C1)C2 (relative stereo) [ARI-5544, Gly(1-adamantyl)-boroPro]
HEL cells; Homo sapiens, 48 h
  IC50: > 60 µM
SKM-1 cells; Homo sapiens, SKM-1, 48 h
  IC50: 0.0004 µM
Jurkat cells; Homo sapiens
  IC50: > 60 µM
MOLM-13 cells; Homo sapiens, MOLM-13, 48 h
  IC50: 0.005 µM
OCI-AML3 cells; Homo sapiens, OCI-AML-3, 48 h
  IC50: 0.002 µM
HT-1080 cells; Homo sapiens, HT-1080, 48 h
  IC50: > 60 µM
THP-1 cells; Homo sapiens, THP-1, 48 h
  IC50: 0.005 µM
MCF7 cells; Homo sapiens, MCF7, 48 h
  IC50: > 60 µM
HL-60 cells; Homo sapiens, HL-60, 48 h
  IC50: 0.003 µM
IMR-5 cells; Homo sapiens, IMR-5, 48 h
  IC50: > 60 µM
TC-71 cells; TC-71, 48 h
  IC50: > 60 µM
DAOY cells; Homo sapiens, Daoy
  IC50: > 60 µM
SET-2 cells; Homo sapiens, SET-2, 48 h
  IC50: 0.0002 µM
U937 cells; Homo sapiens, U-937, 48 h
  IC50: > 60 µM
Kasumi-1 cells; Homo sapiens, Kasumi 1, 48 h
  IC50: > 60 µM
NOMO-1 cells; Homo sapiens, NOMO-1, 48 h
  IC50: 0.005 µM
ONS-76 cells; Homo sapiens, ONS-76, 48 h
  IC50: > 60 µM
K562 cells; Homo sapiens, K562, 48 h
  IC50: > 60 µM
RDES-1 cells
  IC50: > 60 µM
KG-1 cells; Homo sapiens, KG-1, 48 h
  IC50: 0.005 µM
NB4 cells
  IC50: 0.003 µM
MV4;11 cells
  IC50: 0.002 µM
CT26 cells; Mus musculus, CT26
  EC50: > 100 µM
AML cell lines
  IC50 values over the sensitive AML cell lines: low (single digit) nanomolar
